Assay results: ChEMBL document CHEMBL3769388, “Optimization of a Dicarboxylic Series for in Vivo Inhibition of Citrate Transport by the Solute Carrier 13 (SLC13) Family” (J Med Chem, 2016)
Activity calls are given as the source filed them. The rule behind the calls is not given here.

What was measured:
[1] = target: Glucocorticoid receptor (Homo sapiens) (UniProt P04150); assay: Inhibition of GR (unknown origin)
Bile salt export pump = Bile salt export pump (Homo sapiens, UniProt O95342); assay: Inhibition of ABCB11 (unknown origin)
[2] = target: Tyrosine-protein kinase Lck (Homo sapiens) (UniProt P06239); assay: Inhibition of LCK (unknown origin)
[3] = target: Sodium-dependent phosphate transport protein 1 (Homo sapiens) (UniProt Q14916); assay: Inhibition of NaPiA1 (unknown origin)
Sodium-dependent phosphate transport protein 1 (Homo sapiens), sequence (Q14916 whole entry): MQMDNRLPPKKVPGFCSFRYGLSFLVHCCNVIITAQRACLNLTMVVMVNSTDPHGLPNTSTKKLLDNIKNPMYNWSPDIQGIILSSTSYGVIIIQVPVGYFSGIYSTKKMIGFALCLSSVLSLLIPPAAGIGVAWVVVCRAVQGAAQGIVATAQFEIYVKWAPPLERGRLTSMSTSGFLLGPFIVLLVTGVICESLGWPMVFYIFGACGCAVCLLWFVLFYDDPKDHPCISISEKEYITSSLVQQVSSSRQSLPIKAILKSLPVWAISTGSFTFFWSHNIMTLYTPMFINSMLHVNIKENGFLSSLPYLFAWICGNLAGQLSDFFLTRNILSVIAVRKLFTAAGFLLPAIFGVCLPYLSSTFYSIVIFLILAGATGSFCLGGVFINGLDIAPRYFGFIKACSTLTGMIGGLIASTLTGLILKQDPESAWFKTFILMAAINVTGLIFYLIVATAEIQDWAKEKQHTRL

[4] = target: Na(+)/citrate cotransporter (Mus musculus, UniProt Q67BT3); assay: Inhibition of NaCT in mouse hepatocytes assessed as [14C]-citrate uptake after 30 mins by scintillation counting method; format: cell-based, Hepatocyte
[5] = target: Sodium channel protein type 5 subunit alpha (Homo sapiens, UniProt Q14524); assay: Inhibition of NaV1.5 (unknown origin)
Mus musculus [6] = assay: Increase in urinary citrate output in C57BL/6J mouse at 250 mg/kg, po measured after 7 hrs by UPLC-MS/MS analysis; format: functional, Urine
[7] = target: Endothelin-1 receptor (Homo sapiens) (UniProt P25101); assay: Inhibition of ETA (unknown origin)
Endothelin-1 receptor (Homo sapiens), sequence (P25101 whole entry): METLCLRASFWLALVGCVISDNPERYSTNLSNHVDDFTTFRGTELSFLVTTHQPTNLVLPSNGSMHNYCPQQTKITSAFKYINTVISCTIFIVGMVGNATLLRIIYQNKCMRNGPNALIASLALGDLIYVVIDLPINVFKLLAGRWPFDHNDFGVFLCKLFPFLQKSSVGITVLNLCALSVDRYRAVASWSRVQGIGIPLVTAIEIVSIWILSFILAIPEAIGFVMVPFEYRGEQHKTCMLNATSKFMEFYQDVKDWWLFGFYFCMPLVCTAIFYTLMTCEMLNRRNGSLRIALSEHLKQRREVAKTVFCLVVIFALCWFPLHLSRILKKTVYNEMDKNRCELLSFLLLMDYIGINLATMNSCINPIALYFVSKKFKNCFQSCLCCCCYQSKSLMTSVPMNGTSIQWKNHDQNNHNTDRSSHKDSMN

[8] = target: 5-hydroxytryptamine receptor 1B (Homo sapiens) (UniProt P28222); assay: Inhibition of 5HT1B (unknown origin)
[9] = target: 5-hydroxytryptamine receptor 3A (Homo sapiens) (UniProt P46098); assay: Inhibition of 5HT3 receptor (unknown origin)
[10] = target: Sodium-dependent phosphate transport protein 3 (Homo sapiens) (UniProt O00624); assay: Inhibition of NaPiA3 (unknown origin)
[11] = target: Kappa-type opioid receptor (Homo sapiens) (UniProt P41145); assay: Inhibition of OPRK1 (unknown origin)
[12] = target: Sodium-dependent noradrenaline transporter (Homo sapiens) (UniProt P23975); assay: Inhibition of NAT (unknown origin)
[13] = target: Na(+)/dicarboxylate cotransporter 3 (Homo sapiens, UniProt Q8WWT9); assay: Inhibition of NaDC3 (unknown origin) expressed in HEK293 cells assessed as inhibition of [14C]citrate uptake by microbeta plate reader analysis; format: cell-based
Na(+)/dicarboxylate cotransporter 3, sequence (Q8WWT9 whole entry): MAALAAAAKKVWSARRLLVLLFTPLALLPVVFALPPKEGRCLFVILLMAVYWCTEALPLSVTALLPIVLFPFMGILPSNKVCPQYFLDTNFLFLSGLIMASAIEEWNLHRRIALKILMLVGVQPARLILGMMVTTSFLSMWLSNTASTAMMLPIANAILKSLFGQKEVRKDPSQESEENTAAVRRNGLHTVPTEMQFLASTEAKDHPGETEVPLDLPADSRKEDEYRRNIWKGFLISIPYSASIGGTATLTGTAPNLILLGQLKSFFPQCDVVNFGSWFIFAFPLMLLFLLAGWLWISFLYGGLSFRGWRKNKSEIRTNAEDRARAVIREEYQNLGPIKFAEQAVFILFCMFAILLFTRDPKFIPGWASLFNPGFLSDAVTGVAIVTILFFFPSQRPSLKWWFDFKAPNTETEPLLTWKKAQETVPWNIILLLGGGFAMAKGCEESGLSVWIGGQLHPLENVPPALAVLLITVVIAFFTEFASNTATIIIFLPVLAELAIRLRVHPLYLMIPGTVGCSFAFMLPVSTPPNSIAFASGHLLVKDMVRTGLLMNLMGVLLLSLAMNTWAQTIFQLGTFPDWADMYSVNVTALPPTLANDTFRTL

[14] = Volume of distribution at steady state in Wistar Han rat at 1 mg/kg, iv by LC-MS/MS analysis; format: ADME, organism-based; conditions: in vivo, read-out: Vdss
[15] = target: Androgen receptor (Homo sapiens) (UniProt P10275); assay: Inhibition of Androgen receptor (unknown origin)
[16] = target: 5-hydroxytryptamine receptor 2B (Homo sapiens) (UniProt P41595); assay: Inhibition of 5HT2B receptor (unknown origin)
[17] = target: Alpha-2A adrenergic receptor (Homo sapiens) (UniProt P08913); assay: Inhibition of ADRA2A (unknown origin)
[18] = Clearance in rat hepatocytes assessed per 10^6 cells; format: ADME, cell-based, Hepatocyte; conditions: read-out: CLH
[19] = target: cGMP-specific 3',5'-cyclic phosphodiesterase (Homo sapiens) (UniProt O76074); assay: Inhibition of PDE5A1 (unknown origin)
[20] = target: cGMP-inhibited 3',5'-cyclic phosphodiesterase 3B (Homo sapiens) (UniProt Q13370); assay: Inhibition of PDE3B (unknown origin)
cGMP-inhibited 3',5'-cyclic phosphodiesterase 3B (Homo sapiens), sequence (Q13370 whole entry, looked up): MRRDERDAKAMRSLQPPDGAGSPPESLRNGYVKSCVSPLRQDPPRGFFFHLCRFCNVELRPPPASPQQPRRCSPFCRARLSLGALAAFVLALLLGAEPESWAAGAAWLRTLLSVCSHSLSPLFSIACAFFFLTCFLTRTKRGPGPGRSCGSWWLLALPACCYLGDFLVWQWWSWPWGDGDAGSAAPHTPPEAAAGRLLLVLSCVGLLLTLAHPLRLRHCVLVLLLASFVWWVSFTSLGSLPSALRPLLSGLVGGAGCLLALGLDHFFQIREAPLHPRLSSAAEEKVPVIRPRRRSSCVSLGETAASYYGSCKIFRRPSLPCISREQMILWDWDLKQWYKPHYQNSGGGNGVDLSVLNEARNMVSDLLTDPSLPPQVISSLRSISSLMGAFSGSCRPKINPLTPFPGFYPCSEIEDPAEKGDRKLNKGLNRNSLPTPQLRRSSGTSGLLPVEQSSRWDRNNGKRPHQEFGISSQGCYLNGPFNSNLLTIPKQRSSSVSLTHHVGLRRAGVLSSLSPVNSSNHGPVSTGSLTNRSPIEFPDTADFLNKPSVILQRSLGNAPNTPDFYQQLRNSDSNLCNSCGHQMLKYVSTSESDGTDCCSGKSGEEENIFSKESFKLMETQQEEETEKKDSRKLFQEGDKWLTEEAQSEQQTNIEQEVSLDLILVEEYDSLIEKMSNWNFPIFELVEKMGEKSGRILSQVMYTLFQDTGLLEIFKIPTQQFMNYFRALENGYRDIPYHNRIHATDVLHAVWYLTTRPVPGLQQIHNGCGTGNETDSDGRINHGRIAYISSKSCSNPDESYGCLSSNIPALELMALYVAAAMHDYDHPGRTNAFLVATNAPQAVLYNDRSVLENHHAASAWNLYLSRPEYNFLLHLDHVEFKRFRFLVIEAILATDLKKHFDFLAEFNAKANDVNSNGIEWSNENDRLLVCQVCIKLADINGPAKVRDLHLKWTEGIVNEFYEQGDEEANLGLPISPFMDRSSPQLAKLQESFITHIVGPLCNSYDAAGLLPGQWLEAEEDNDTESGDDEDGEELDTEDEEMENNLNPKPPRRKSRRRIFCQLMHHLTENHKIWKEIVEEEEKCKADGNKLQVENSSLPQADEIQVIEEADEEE

[21] = target: Type-1 angiotensin II receptor (Homo sapiens) (UniProt P30556); assay: Inhibition of AGTR1 (unknown origin)
[22] = target: Amine oxidase [flavin-containing] A (Homo sapiens, UniProt P21397); assay: Inhibition of MAOA (unknown origin)
[23] = target: Na(+)/citrate cotransporter (Homo sapiens, UniProt Q86YT5); assay: Inhibition of NaCT in human hepatocytes assessed as [14C]-citrate uptake after 30 mins by scintillation counting method; format: cell-based, Hepatocyte
[24] = AUC(0 to t) in Wistar Han rat at 5 mg/kg, po by LC-MS/MS analysis; format: ADME, organism-based; conditions: in vivo
Rattus norvegicus [25] = species on record: Rattus norvegicus; assay: Increase in [12C]-citrate levels in rat liver measured over 140 to 150 mins by UPLC-MS/MS analysis; format: functional, organism-based
[26] = target: Voltage-gated L-type calcium channel (Homo sapiens, UniProt Q13936+Q13698+Q01668+O60840); assay: Inhibition of L type calcium channel (unknown origin); format: protein assay
[27] = target: Histamine H3 receptor (Homo sapiens) (UniProt Q9Y5N1); assay: Inhibition of H3 (unknown origin)
[28] = target: Sodium-dependent phosphate transport protein 2A (Homo sapiens) (UniProt Q06495); assay: Inhibition of NaPiA2 (unknown origin)
[29] = target: Substance-P receptor (Homo sapiens) (UniProt P25103); assay: Inhibition of NK1 receptor (unknown origin)
[30] = target: Alpha-1A adrenergic receptor (Homo sapiens) (UniProt P35348); assay: Inhibition of ADRA1A (unknown origin)
Cytochrome P450 1A2 = Cytochrome P450 1A2 (Homo sapiens, UniProt P05177); assay: Inhibition of CYP1A2 (unknown origin); format: ADME
Cytochrome P450 1A2, sequence (P05177 whole entry): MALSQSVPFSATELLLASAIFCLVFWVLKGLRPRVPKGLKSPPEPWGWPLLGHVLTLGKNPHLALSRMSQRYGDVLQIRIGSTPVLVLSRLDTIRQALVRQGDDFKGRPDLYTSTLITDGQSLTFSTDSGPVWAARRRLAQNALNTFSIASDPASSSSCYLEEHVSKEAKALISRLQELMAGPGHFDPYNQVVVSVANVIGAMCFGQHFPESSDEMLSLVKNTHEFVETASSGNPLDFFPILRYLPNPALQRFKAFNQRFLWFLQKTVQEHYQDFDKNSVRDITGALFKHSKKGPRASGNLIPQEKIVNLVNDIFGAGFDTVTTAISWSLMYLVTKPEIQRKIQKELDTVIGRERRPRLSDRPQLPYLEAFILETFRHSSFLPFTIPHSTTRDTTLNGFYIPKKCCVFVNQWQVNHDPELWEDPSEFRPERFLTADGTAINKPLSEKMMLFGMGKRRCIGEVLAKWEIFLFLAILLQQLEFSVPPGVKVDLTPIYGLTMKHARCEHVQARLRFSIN

Mus musculus [31] = species on record: Mus musculus; assay: Decrease in [14C]citrate uptake in DIO mouse liver during hyperinsulinemic-euglycemic clamp; format: functional, organism-based
Rattus norvegicus [32] = assay: Decrease in [14C]citrate uptake in iv dosed Wistar Han rat liver measured after 185 to 200 mins by scintillation counting method; format: functional, organism-based
[33] = target: Muscarinic acetylcholine receptor M3 (Homo sapiens) (UniProt P20309); assay: Inhibition of M3 (unknown origin)
[34] = target: Angiotensin-converting enzyme (Homo sapiens) (UniProt P12821); assay: Inhibition of ACE1 (unknown origin)
[35] = target: Sodium channel protein type 1 subunit alpha (Homo sapiens) (UniProt P35498); assay: Inhibition of NaV1.1 (unknown origin)
[36] = target: Vascular endothelial growth factor receptor 2 (Homo sapiens) (UniProt P35968); assay: Inhibition of VEGFR2 (unknown origin)
[37] = Half life in Wistar Han rat at 1 mg/kg, iv by LC-MS/MS analysis; format: ADME, organism-based; conditions: in vivo
[38] = target: Proto-oncogene tyrosine-protein kinase Src (Homo sapiens) (UniProt P12931); assay: Inhibition of SRC (unknown origin)
[39] = target: Histamine H2 receptor (Homo sapiens) (UniProt P25021); assay: Inhibition of H2 (unknown origin)
Homo sapiens = species on record: Homo sapiens; assay: Inhibition of PDE3A1 (unknown origin)
[40] = Clearance in human hepatocytes assessed per 10^6 cells; format: ADME, cell-based, Hepatocyte; conditions: read-out: CLH
[41] = target: 5-hydroxytryptamine receptor 1A (Homo sapiens) (UniProt P08908); assay: Inhibition of 5HT1A (unknown origin)
[42] = target: 3',5'-cyclic-AMP phosphodiesterase 4D (Homo sapiens) (UniProt Q08499); assay: Inhibition of PDE4D3 (unknown origin)
[43] = target: Sodium-dependent dopamine transporter (Homo sapiens) (UniProt Q01959); assay: Inhibition of DAT (unknown origin)
Sodium-dependent dopamine transporter (Homo sapiens), sequence (Q01959 whole entry): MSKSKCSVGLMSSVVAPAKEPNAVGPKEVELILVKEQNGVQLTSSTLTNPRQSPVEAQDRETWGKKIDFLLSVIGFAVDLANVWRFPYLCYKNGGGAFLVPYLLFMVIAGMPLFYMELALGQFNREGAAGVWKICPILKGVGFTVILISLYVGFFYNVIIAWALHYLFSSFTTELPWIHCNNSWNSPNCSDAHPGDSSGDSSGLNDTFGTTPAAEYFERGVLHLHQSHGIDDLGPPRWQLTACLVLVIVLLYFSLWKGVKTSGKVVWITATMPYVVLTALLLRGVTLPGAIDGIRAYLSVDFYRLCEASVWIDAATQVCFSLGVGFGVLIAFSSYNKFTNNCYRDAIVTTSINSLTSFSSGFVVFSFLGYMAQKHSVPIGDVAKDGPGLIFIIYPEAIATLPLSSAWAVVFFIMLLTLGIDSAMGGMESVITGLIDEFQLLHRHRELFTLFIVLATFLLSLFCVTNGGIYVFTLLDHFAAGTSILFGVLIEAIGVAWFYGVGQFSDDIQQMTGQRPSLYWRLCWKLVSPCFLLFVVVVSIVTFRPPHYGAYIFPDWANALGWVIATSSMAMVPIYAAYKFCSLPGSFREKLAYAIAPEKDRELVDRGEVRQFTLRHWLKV

Mus musculus [44] = assay: Increase in urinary calcium level in C57BL/6J mouse at 250 mg/kg, po measured after 7 hrs by UPLC-MS/MS analysis; format: functional, organism-based; conditions: Urine
[45] = Clearance in mouse hepatocytes assessed per 10^6 cells; format: ADME, cell-based, Hepatocyte; conditions: read-out: CLH
[46] = target: Adenosine receptor A1 (Homo sapiens) (UniProt P30542); assay: Inhibition of ADORA1 (unknown origin)
Adenosine receptor A1 (Homo sapiens), sequence (P30542 whole entry): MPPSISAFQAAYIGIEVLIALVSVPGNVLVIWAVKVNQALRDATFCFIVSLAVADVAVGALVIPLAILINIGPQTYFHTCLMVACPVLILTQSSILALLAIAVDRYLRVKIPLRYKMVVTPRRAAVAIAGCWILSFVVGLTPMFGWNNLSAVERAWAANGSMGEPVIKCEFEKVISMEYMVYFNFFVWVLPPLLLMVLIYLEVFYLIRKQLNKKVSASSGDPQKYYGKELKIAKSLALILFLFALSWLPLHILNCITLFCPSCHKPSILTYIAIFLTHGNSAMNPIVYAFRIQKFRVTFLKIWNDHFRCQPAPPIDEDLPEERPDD

Glucocorticoid receptor (Homo sapiens), sequence (P04150 whole entry): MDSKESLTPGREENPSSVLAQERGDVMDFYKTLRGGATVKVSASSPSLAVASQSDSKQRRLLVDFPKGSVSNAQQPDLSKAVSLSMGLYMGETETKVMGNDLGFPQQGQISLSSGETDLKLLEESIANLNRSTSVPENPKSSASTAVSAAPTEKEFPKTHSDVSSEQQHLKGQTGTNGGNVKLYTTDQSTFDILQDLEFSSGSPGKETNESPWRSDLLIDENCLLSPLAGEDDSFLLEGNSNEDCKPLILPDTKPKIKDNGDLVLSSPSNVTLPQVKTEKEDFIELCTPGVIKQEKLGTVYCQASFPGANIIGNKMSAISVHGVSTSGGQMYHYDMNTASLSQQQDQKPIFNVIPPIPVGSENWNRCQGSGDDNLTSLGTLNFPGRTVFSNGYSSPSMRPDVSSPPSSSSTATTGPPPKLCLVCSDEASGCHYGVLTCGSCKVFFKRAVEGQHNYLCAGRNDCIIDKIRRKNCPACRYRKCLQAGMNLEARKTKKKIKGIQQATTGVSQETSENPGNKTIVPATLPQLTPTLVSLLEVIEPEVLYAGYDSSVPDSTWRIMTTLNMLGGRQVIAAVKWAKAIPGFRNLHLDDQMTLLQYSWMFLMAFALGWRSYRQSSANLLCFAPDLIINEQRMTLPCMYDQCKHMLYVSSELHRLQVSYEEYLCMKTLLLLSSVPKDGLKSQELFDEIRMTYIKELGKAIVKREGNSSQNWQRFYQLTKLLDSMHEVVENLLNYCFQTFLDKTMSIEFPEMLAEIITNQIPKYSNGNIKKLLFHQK

COc1ncc(C)cc1CC[C@@](O)(CC(=O)O)C(=O)O
inhibition [1]: inactive
inhibition (INH) (Bile salt export pump): Not Active
inhibition [2]: inactive
inhibition [3]: inactive
IC50 [4]: 210 nM
inhibition (INH) [5]: Not Active
fold change (FC) (Mus musculus [6]): 230
inhibition [7]: inactive
inhibition [8]: inactive
inhibition [9]: inactive
inhibition [10]: inactive
inhibition [11]: inactive
inhibition [12]: inactive
IC50 ([13]; read-out: IC50): 14100 nM
IC50 ([13]; read-out: pIC50 (converted)): 10000 nM
Vd [14]: 0.54 L/kg
inhibition [15]: inactive
inhibition [16]: inactive
inhibition [17]: inactive
hepatocyte CLint [18]: < 6 µL/min/1e6 cells
inhibition [19]: inactive
inhibition [20]: inactive
inhibition [21]: inactive
inhibition (INH) [22]: Not Active
IC50 [23]: 740 nM
AUC(0-t) [24]: 4890 ng·h/mL
Activity (Rattus norvegicus [25]): Active
inhibition (INH) [26]: Not Active
inhibition [27]: inactive
inhibition [28]: inactive
inhibition [29]: inactive
inhibition [30]: inactive
inhibition (INH) (Cytochrome P450 1A2): Not Active
inhibition (Mus musculus [31]): Active
IC50 (Rattus norvegicus [32]): 1400 nM
inhibition [33]: inactive
inhibition [34]: inactive
inhibition [35]: inactive
inhibition [36]: inactive
half-life [37]: 1.7 h
inhibition [38]: inactive
inhibition [39]: inactive
inhibition (Homo sapiens): inactive
hepatocyte CLint [40]: 7 µL/min/1e6 cells
inhibition [41]: inactive
inhibition [42]: inactive
inhibition [43]: inactive
Activity (Mus musculus [44]): Active
hepatocyte CLint [45]: < 6 µL/min/1e6 cells
inhibition [46]: inactive
